Source: publication PMC6905855, “Agonist-specific voltage-dependent gating of lysosomal two-pore Na^+ channels” (eLife, 2019)
Counter-ions that a name gives are not always drawn.

What was measured:
[1] = molecular target: T1, surface-expressing mutant TPC2 channel (TPC2^LL/AA) in HEK293 cells (Homo sapiens, UniProt Q8NHX9, L11A/L12A); test: Whole-cell recordings of ITPC2-LL/AA; type: cell-based; details: preliminary whole-cell test of positive LOPAC hits; HEK293 cells overexpressing TPC2 LL/AA; voltage ramp -140 to +100 mV (200 ms); measured at -140 mV
T1 construct: expressed in transfected cells; host or cells: HEK293
T1 sequence (Q8NHX9 whole entry L11A/L12A): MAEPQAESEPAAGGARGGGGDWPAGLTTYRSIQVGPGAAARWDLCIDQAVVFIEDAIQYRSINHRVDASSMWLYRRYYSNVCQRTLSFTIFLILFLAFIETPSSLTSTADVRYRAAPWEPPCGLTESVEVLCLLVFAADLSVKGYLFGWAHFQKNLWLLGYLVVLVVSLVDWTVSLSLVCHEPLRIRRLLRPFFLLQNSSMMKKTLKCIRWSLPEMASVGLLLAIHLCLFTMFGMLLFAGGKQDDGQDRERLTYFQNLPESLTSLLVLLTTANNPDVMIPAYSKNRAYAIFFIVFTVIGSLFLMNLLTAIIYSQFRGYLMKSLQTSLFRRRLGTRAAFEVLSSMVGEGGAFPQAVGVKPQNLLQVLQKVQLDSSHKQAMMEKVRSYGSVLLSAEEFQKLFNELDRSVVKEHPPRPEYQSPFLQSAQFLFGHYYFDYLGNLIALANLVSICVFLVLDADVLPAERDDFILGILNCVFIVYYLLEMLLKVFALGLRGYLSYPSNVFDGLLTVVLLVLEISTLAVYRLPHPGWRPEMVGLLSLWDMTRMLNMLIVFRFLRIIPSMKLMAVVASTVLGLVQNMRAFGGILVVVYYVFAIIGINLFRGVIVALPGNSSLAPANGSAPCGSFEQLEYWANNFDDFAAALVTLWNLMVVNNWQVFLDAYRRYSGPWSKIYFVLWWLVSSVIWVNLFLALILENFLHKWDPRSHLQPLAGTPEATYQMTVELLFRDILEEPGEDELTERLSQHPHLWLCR
Excerpt: We therefore characterized the responses of TPC2 channels to TCAs in detail using electrophysiological methods. We first performed whole-cell recordings in HEK293 cells that were transfected with surface-expressed TPC2 mutant channels (TPC2-L^11L^12-AA; abbreviated as TPC2^LL/AA hereafter).
All TPC1 and TPC2 mutants were generated with a site-directed mutagenesis kit (Qiagen) using EGFP- human TPC1 and TPC2 as the templates. All constructs were confirmed by DNA sequencing.
Cells were transfected with Lipofectamine 2000 (Invitrogen). After culture media were refreshed 18–24 hr post-transfection, cells were used for the electrophysiological assays 24–36 hr post-transfection.
All bath solutions were applied via a perfusion system that allowed complete solution exchange within a few seconds. […] Whole-cell currents were digitized at 10 kHz and filtered at 2 kHz.

hTPC2 = molecular target: T2, hTPC2 (Homo sapiens, UniProt Q8NHX9); test: Whole-endolysosome recordings of ITPC2; type: biochemical; parameters: Whole endo-lysosomal TPC2 current activated by LyNa-VAs, Test 3 / Whole endo-lysosomal TPC2 current activated by LyNa-VAs, mean: unit not given here; details: 100uM; for Whole endo-lysosomal TPC2 current activated by LyNa-VAs, mean: mean of n tests
T2 construct: expressed in transfected cells; host or cells: Cos1 and HEK293
T2 sequence (Q8NHX9 whole entry): as the sequence (Q8NHX9 whole entry L11A/L12A) above, with A11L, A12L counted along it

| Structure (SMILES) | I-TPC2 [1] | further results |
| --- | --- | --- |
| CC(=O)OC(C)C[N+](C)(C)C (stereo not drawn) [Methacholine chloride] | No activation | – |
| CNCCC=C1c2ccccc2CCc2ccccc21 [LyNa-VA1.5/nortriptyline] | – | Whole endo-lysosomal TPC2 current activated by LyNa-VAs, Test 1 (hTPC2; individual recording): 1814.6; Whole endo-lysosomal TPC2 current activated by LyNa-VAs, Test 2 (hTPC2; individual recording): 1075.1; Whole endo-lysosomal TPC2 current activated by LyNa-VAs, Test 3 (hTPC2; individual recording): 1937.9; Whole endo-lysosomal TPC2 current activated by LyNa-VAs, Test 4 (hTPC2; individual recording, Test 4): 2836.3; Whole endo-lysosomal TPC2 current activated by LyNa-VAs, mean (hTPC2): 1916.0 |
| N=C(N)NC(=O)Cc1c(Cl)cccc1Cl [Guanfacine hydrochloride] | No activation | – |
| COC(=O)C1=CCCN(C)C1 [Arecoline] | No activation | – |
| CN(C)CCCN1c2ccccc2Sc2ccc(C(F)(F)F)cc21 [Triflupromazine hydrochloride] | >1500 pA | – |
| CN(C)CCCN1c2ccccc2CCc2ccccc21 [LyNa-VA1.3/imipramine] | – | Whole endo-lysosomal TPC2 current activated by LyNa-VAs, Test 1 (hTPC2; individual recording): 621.3; Whole endo-lysosomal TPC2 current activated by LyNa-VAs, Test 2 (hTPC2; individual recording): 343.9; Whole endo-lysosomal TPC2 current activated by LyNa-VAs, Test 3 (hTPC2; individual recording): 334.8; Whole endo-lysosomal TPC2 current activated by LyNa-VAs, mean (hTPC2): 433.3 |
| CN(C)c1cc2c(Nc3ccc4c(cnn4Cc4ccccc4)c3)ncnc2cn1 | No activation | – |
| CN(C)CCC[C@@]1(c2ccc(F)cc2)OCc2cc(C#N)ccc21 [Escitalopram] | No activation | – |
| CNCCCC1c2ccccc2C=Cc2ccccc21 [Protriptyline hydrochloride] | ~1000 pA | – |
| CCCNCC(O)COc1ccccc1C(=O)CCc1ccccc1 (stereo not drawn) [Propafenone] | No activation | – |
| CN(C)CCC=C1c2ccccc2CCc2ccccc21 [Amitriptyline hydrochloride] | ~1000 pA | – |
| CN(C)CCCN1c2ccccc2Sc2ccc(Cl)cc21 [LyNa-VA2.1/chlorpromazine] | – | Whole endo-lysosomal TPC2 current activated by LyNa-VAs, Test 1 (hTPC2; individual recording): 1013.4; Whole endo-lysosomal TPC2 current activated by LyNa-VAs, Test 2 (hTPC2; individual recording): 2019.9; Whole endo-lysosomal TPC2 current activated by LyNa-VAs, Test 3 (hTPC2; individual recording): 268.2; Whole endo-lysosomal TPC2 current activated by LyNa-VAs, mean (hTPC2): 1100.5 |
| CC(=O)NBr [n-Bromoacetamide] | No activation | – |
| O=C(Nc1ccc([N+](=O)[O-])cc1Cl)c1cc(Cl)ccc1O [Niclosamide] | No activation | – |
| CN(C)CCCN1c2ccccc2Sc2ccc(C(F)(F)F)cc21 [LyNa-VA2.2/triflupromazine] | – | Whole endo-lysosomal TPC2 current activated by LyNa-VAs, Test 1 (hTPC2; individual recording): 1572; Whole endo-lysosomal TPC2 current activated by LyNa-VAs, Test 2 (hTPC2; individual recording): 698; Whole endo-lysosomal TPC2 current activated by LyNa-VAs, Test 3 (hTPC2; individual recording): 681.2; Whole endo-lysosomal TPC2 current activated by LyNa-VAs, mean (hTPC2): 983.7 |
| CN(C)C(=O)C(CCN1CCC(O)(c2ccc(Cl)cc2)CC1)(c1ccccc1)c1ccccc1 [Loperamide] | No activation | – |
| C[C@@H]1O[C@H](C[N+](C)(C)C)C[C@H]1O [Muscarine] | No activation | – |
| C[N+](C)(C)CC#CCN1CCCC1=O | No activation | – |
| CN(C)CCCN1c2ccccc2Sc2ccc(Cl)cc21 [Chlorpromazine hydrochloride] | >1500 pA | – |
| C#CCOC(=O)C1=CCCN(C)C1 [Arecaidine propargyl ester] | No activation | – |
| CN1Cc2c(N)cccc2C(c2ccccc2)C1 (stereo not drawn) [Nomifensine maleate] | No activation | – |
| C[N+](C)(C)CCOC(N)=O [Carbachol] | No activation | – |
| CC(C)(C)c1cc(/C=C(\C#N)C(N)=S)cc(C(C)(C)C)c1O [Tyrphostin AG 879] | No activation | – |
| N#C/C(=C\c1ccc(O)c(O)c1)C(=O)NCc1ccccc1 [Tyrphostin B42] | No activation | – |
| CC(C[N+](C)(C)C)OC(N)=O (stereo not drawn) [Bethanechol chloride] | No activation | – |
| CCN(CC)CCCC(C)Nc1c2ccc(Cl)cc2nc2ccc(OC)cc12 (stereo not drawn) [Quinacrine dihydrochloride dihydrate] | No activation | – |
